Measured values: ChEMBL document CHEMBL3046659, “Synthesis and Biological Evaluation of Allosteric A1-Adenosine Receptor Modulators Structurally Related to (2-Amino-4,5,6,7-Tetrahydro-Benzo[B]Thiophen-3-YL)-(4-Chloro-Phenyl)-Methanone, a Potent Compound Useful to Reduce Neuropathic Pain” (Med Chem Res, 2005)
Blank lines part the entries; values can stand above or below the compound they belong to. Active and inactive are the calls of the source. No cut-off for these calls is given here.

How the values were obtained:
[1] = biological target: T1, Adenosine receptor A1 (Homo sapiens) (UniProt P30542); test: Antagonist activity at Homo sapiens (human) Adenosine A1 receptor expressed in CHO cells assessed as cAMP level at 0.01 to 10 uM after 6 min by radioimmunoassay; assay type: functional, cell-based
T1 sequence (whole entry): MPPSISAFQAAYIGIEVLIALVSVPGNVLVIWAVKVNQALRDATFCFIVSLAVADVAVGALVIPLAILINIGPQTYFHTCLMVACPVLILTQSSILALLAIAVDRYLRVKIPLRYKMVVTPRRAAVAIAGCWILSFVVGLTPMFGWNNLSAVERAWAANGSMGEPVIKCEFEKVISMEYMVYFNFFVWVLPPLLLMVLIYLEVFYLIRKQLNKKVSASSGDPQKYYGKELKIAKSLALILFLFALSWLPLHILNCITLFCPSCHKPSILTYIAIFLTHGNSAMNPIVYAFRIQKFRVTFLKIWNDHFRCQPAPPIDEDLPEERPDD

[2] = biological target: T1, Adenosine receptor A1 (Homo sapiens); test: Allosteric modulation of Homo sapiens (human) Adenosine A1 receptor expressed in CHO cells assessed as reduction of cAMP level at 10 uM after 6 min by radioimmunoassay; assay type: functional, cell-based; set-up: scale not given: the % may be the effect or the level left
[3] = biological target: T1, Adenosine receptor A1 (Homo sapiens); test: Allosteric modulation of Homo sapiens (human) Adenosine A1 receptor expressed in CHO cells assessed as reduction of cAMP level at 0.01 uM after 6 min by radioimmunoassay; assay type: functional, cell-based; set-up: scale not given: the % may be the effect or the level left
[4] = biological target: T1, Adenosine receptor A1 (Homo sapiens); test: Allosteric modulation of Homo sapiens (human) Adenosine A1 receptor expressed in CHO cells assessed as reduction of cAMP level at 0.1 uM after 6 min by radioimmunoassay; assay type: functional, cell-based; set-up: scale not given: the % may be the effect or the level left
[5] = biological target: T1, Adenosine receptor A1 (Homo sapiens); test: Allosteric modulation of Homo sapiens (human) Adenosine A1 receptor expressed in CHO cells assessed as reduction of cAMP level at 1 uM after 6 min by radioimmunoassay; assay type: functional, cell-based; set-up: scale not given: the % may be the effect or the level left
[6] = biological target: T1, Adenosine receptor A1 (Homo sapiens); test: Inverse agonist activity at Homo sapiens (human) Adenosine A1 receptor expressed in CHO cells assessed as increase in cAMP level at 0.1 uM after 6 min by radioimmunoassay; assay type: functional, cell-based
[7] = biological target: T1, Adenosine receptor A1 (Homo sapiens); test: Inverse agonist activity at Homo sapiens (human) Adenosine A1 receptor expressed in CHO cells assessed as increase in cAMP level at 1 uM after 6 min by radioimmunoassay; assay type: functional, cell-based
[8] = biological target: T1, Adenosine receptor A1 (Homo sapiens); test: Allosteric enhancer activity at Homo sapiens (human) Adenosine A1 receptor expressed in CHO cells assessed as […] in cAMP level at 10 uM after 6 min by radioimmunoassay; assay type: functional, cell-based
[9] = biological target: T1, Adenosine receptor A1 (Homo sapiens); test: Inverse agonist activity at Homo sapiens (human) Adenosine A1 receptor expressed in CHO cells assessed as increase in cAMP level at 0.01 uM after 6 min by radioimmunoassay; assay type: functional, cell-based
[10] = biological target: T1, Adenosine receptor A1 (Homo sapiens); test: Inverse agonist activity at Homo sapiens (human) Adenosine A1 receptor expressed in CHO cells assessed as increase in cAMP level at 10 uM after 6 min by radioimmunoassay; assay type: functional, cell-based
[11] = biological target: T2, Adenosine receptor A1 (Rattus norvegicus) (UniProt P25099); test: Displacement of [3H]CCPA from A1 receptor in Rattus norvegicus (rat) brain membrane at 10 uM after 90 min
T2 sequence (whole entry): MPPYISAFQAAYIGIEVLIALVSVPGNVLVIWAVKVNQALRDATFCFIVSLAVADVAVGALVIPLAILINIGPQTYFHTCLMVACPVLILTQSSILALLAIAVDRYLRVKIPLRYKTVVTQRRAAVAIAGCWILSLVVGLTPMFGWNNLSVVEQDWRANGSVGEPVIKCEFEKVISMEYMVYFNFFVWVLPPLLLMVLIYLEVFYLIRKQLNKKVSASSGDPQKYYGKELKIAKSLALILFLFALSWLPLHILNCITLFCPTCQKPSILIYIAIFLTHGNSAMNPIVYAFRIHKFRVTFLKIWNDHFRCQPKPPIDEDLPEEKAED

[12] = biological target: T1, Adenosine receptor A1 (Homo sapiens); test: Displacement of [3H]CCPA from Homo sapiens (human) A1 receptor expressed in CHO cells at 10 uM after 90 min; assay type: cell-based
[13] = biological target: T1, Adenosine receptor A1 (Homo sapiens); test: Displacement of [3H]CCPA from A1 receptor in Homo sapiens (human) brain membrane at 10 uM after 90 min

Activity [2]: -35%
Activity [6]: Active
Activity [3]: -1%
Activity [7]: Active
Activity [8]: Active
Activity [4]: 11%
Activity [5]: 1%
SMILES: Nc1sc2c(c1C(=O)c1ccc(Cl)cc1)CCS2

Activity [2]: -29%
Activity [3]: -8%
Activity [8]: Active
Activity [4]: -5%
Activity [5]: -6%
SMILES: Nc1sc2ccccc2c1C(=O)c1ccc(Cl)cc1

Activity [1]: Active
Activity [2]: 46%
Activity [10]: Active
Activity [3]: 11%
Activity [7]: Active
Activity [4]: -1%
Activity [9]: Active
Activity [5]: 15%
SMILES: CS(=O)(=O)OC1CCc2c(sc(N)c2C(=O)c2ccc(Cl)cc2)C1 (stereo unspecified)

Activity [1]: Active
Activity [2]: 16%
Activity [10]: Active
Activity [3]: -11%
Activity [4]: -6%
Activity [5]: -1%
SMILES: Nc1sc2c(c1C(=O)c1ccc(Cl)cc1)CCC(Cc1ccccc1)C2 (stereo unspecified)

Activity [1]: Active
Activity [2]: 52%
Activity [3]: -3%
Activity [4]: -13%
Activity [5]: -2%
SMILES: Nc1sc2c(c1C(=O)c1ccc(Cl)cc1)CCC(O)C2 (stereo unspecified)

More lines, now with the values behind:

SMILES: Nc1sc2c(c1C(=O)c1ccc(Cl)cc1)CCCC2
Activity [1]: Active
Activity [2]: -55%
Activity [3]: -8%
Activity [4]: -23%
Activity [5]: -26%

SMILES: COc1ccc(C2SCc3c(sc(N)c3C(=O)c3ccc(Cl)cc3)S2)cc1 (stereo unspecified)
Activity [1]: Active
Activity [2]: -5%
Activity [3]: 4%
Activity [4]: -13%
Activity [9]: Active
Activity [5]: -17%

SMILES: Nc1sc2c(c1C(=O)c1ccc(Cl)cc1)CCC1(C2)OCCO1
Activity [1]: Active
Activity [2]: 28%
Activity [10]: Active
Activity [3]: -17%
Activity [7]: Active
Activity [4]: -14%
Activity [5]: 3%

SMILES: Nc1sc2c(c1C(=O)c1ccc(Cl)cc1)CCSC2
Activity [1]: Active
Activity [2]: -0.3%
Activity [3]: 15%
Activity [7]: Active
Activity [4]: -10%
Activity [9]: Active
Activity [5]: 16%

SMILES: Nc1sc2c(c1C(=O)c1ccc(Cl)cc1)CCC(c1ccccc1)C2 (stereo unspecified)
Activity [1]: Active
Activity [11]: 33%
Activity [2]: -7%
Activity [12]: 65%
Bmax [12]: 53%
Activity [3]: 20%
Activity [4]: -1%
Activity [9]: Active
Activity [13]: 29%
Activity [5]: -11%
